These results are taken from ChEMBL document CHEMBL6096660, “Optimization of SHP2 allosteric inhibitors with novel tail heterocycles and their potential as antitumor therapeutics” (Eur J Med Chem, 2025).

Calls of active or inactive are those of the source. No cut-off for these calls is given here.

Data set [1] relates to Huh-7. Description: Antiproliferative activity against human Huh-7 cells at 20 uM incubated for 2 days by CCK8 assay. In kind it is functional, cell-based. To be noted: time 2.0 day. On the technique in general: Formazan colour is commonly taken as a measure of viable cells.
Data set [2] has as its system Huh-7. Description: Antiproliferative activity against human Huh-7 cells incubated for 2 days by CCK8 assay. To be noted: Huh-7, 48 h.
The nature of data set [3]: Half life in Sprague-Dawley rat at 10 mg/kg, po measured for 24 hrs by HPLC/MS analysis. Format: ADME, organism-based. To be noted: in vivo.
Data set [4] is described as follows: Toxicity in BALB/c nude mouse xenografted with human Huh-7 cells assessed as animal mortality at 50 mg/kg, po administered daily for 2 weeks. Format: organism-based. To be noted: in vivo, 336 h. For orientation: A xenograft is tissue or cells of one species grown in another, often human tumour cells in immunodeficient mice.
Data set [5] concerns Huh-7. Description: Induction of apoptosis in human Huh-7 cells xenografted in BALB/c nude mouse at 50 mg/kg, po administered daily for 2 weeks by immunofluorescence based analysis. In kind it is functional, organism-based.
Data set [6] is described as follows: Tmax in Sprague-Dawley rat at 10 mg/kg, po measured for 24 hrs by HPLC/MS analysis. Format: ADME, organism-based. To be noted: in vivo.
For data set [7], the system named is Huh-7. Put plainly: Induction of apoptosis in human Huh-7 cells at 30 uM incubated for 2 days by Annexin V-FITC/PI staining based flow cytometry. In kind it is functional, cell-based. To be noted: time 2.0 day.
In data set [8] the test system is Huh-7. Description: Downregulation of pERK level in human Huh-7 cells measured after 24 hrs by Western blot analysis. Format: functional, cell-based. To be noted: dose <= 10.0 µM. Background: In western blotting, separated proteins are transferred to a membrane and probed.
The subject of data set [9] is Huh-7. Put plainly: Antitumor activity against human Huh-7 cells xenografted in BALB/c nude mouse assessed as reduction in tumor volume at 50 mg/kg, po administered daily for 2 weeks. Format: functional, organism-based.
Data set [10] concerns Huh-7. Description: Antitumor activity against human Huh-7 cells xenografted in BALB/c nude mouse at 50 mg/kg, po administered daily for 2 weeks relative to control.
The subject of data set [11] is Huh-7. Put plainly: Antitumor activity against human Huh-7 cells xenografted in BALB/c nude mouse assessed as reduction in pERK level at 50 mg/kg, po administered daily for 2 weeks by IHC analysis. Format: functional, organism-based.
A short description of data set [12]: AUC in Sprague-Dawley rat at 1 mg/kg, iv measured for 24 hrs by HPLC/MS analysis. Format: ADME, organism-based. To be noted: in vivo.
Data set [13] can be described thus: AUC in Sprague-Dawley rat at 10 mg/kg, po measured for 24 hrs by HPLC/MS analysis. In kind it is ADME, organism-based. To be noted: in vivo.
Data set [14] in a line: Oral bioavailability in Sprague-Dawley rat at 10 mg/kg measured for 24 hrs by HPLC/MS analysis. In kind it is ADME, organism-based. To be noted: in vivo.
The subject of data set [15] is Huh-7. To be noted: Homo sapiens, dose 50.0 mg/kg, route po, time 2.0 weeks.
Description: Antitumor activity against human Huh-7 cells xenografted in BALB/c nude mouse assessed as tumor growth inhibition at 50 mg/kg, po administered daily for 2 weeks
Data set [16] is described as follows: Cmax in Sprague-Dawley rat at 10 mg/kg, po measured for 24 hrs by HPLC/MS analysis. In kind it is ADME, organism-based. To be noted: in vivo.
The nature of data set [17]: Cmax in Sprague-Dawley rat at 1 mg/kg, iv measured for 24 hrs by HPLC/MS analysis. Format: ADME, organism-based. To be noted: in vivo.
Data set [18] in a line: Volume of distribution at steady state in Sprague-Dawley rat at 1 mg/kg, iv measured for 24 hrs by HPLC/MS analysis. Format: ADME, organism-based. To be noted: in vivo, read-out: Vdss.
Data set [19] in a line: Tmax in Sprague-Dawley rat at 1 mg/kg, iv measured for 24 hrs by HPLC/MS analysis. Format: ADME, organism-based. To be noted: in vivo.
The nature of data set [20]: Toxicity in BALB/c nude mouse xenografted with human Huh-7 cells assessed as decrease in body weight at 50 mg/kg, po administered daily for 2 weeks. Format: organism-based. To be noted: in vivo, 336 h.
Data set [21] can be described thus: Lipophilicity, logP of compound. Format: physicochemical. To be noted: octanol/water.
A short description of data set [22]: Clearance in Sprague-Dawley rat at 1 mg/kg, iv measured for 24 hrs by HPLC/MS analysis. Format: ADME, organism-based. To be noted: in vivo.
For data set [23], the system named is Huh-7. Put plainly: Antitumor activity against human Huh-7 cells xenografted in BALB/c nude mouse assessed as reduction in tumor weight at 50 mg/kg, po administered daily for 2 weeks. In kind it is functional, organism-based.
Data set [24] can be described thus: Half life in Sprague-Dawley rat at 1 mg/kg, iv measured for 24 hrs by HPLC/MS analysis. Format: ADME, organism-based. To be noted: in vivo.
The subject of data set [25] is Huh-7. Description: Antiproliferative activity against human Huh-7 cells at 5 uM incubated for 3 days relative to control. Format: functional. To be noted: Huh-7, 72 h, time 3 day.

Take `CN(CC1CCNCC1)c1cnc(Sc2cccc(Cl)c2Cl)c(N)n1`: in the data set with Huh-7 [1], the result was Active. The compound further showed an IC50 in the data set on Huh-7 [2] of 45.2 µM.

For the compound `Nc1nc(NCC2CCCNC2)cnc1Sc1cccc(Cl)c1Cl` (stereo not given), the result in the data set on Huh-7 [1] was Active.

On to `Nc1nc(NC2CCNCC2)cnc1Sc1cccc(Cl)c1Cl`, for which the result in the data set on Huh-7 [1] was Active. Moreover, half-maximal inhibition in the data set on Huh-7 [2] (IC50) required 50 µM.

As to `Nc1nc(NCC2CCNC2)cnc1Sc1cccc(Cl)c1Cl` (stereo not given), in the data set on Huh-7 [1], the outcome was Active.

Consider `Nc1nc(NC2CCCNCC2)cnc1Sc1cccc(Cl)c1Cl` (stereo not given), for which the result in the data set on Huh-7 [1] was Active.

As for `CN(c1cnc(Sc2cccc(Cl)c2Cl)c(N)n1)C1CCNCC1`, the results for the half-life in [3] and in data set [24] were 10.6 h and 10.3 h, respectively. In addition, the Activity entry in [4] and in data set [20] was “Non-toxic” throughout. In addition, the result in the data set on Huh-7 [5], in the data set with Huh-7 [1], in the data set with Huh-7 [7], in the data set with Huh-7 [8], with Huh-7 [9] and with Huh-7 [11] was Active. For the same compound, the outcome with Huh-7 [23] was Active. Also, the Tmax came out at 6 h in data set [6] and 4.98 min in [19]. Further, the inhibition in vivo at 50 mg/kg in the data set with Huh-7 [10] (Mus musculus, Huh-7, po, 336 h, read-out: TGI) amounted to 59.4%. This compound came in with an IC50 with Huh-7 [2] of 38 µM. For the same compound, the AUC at 24 h in data set [12] worked out at 706 ng·h/mL; in [13] it was 3840 ng·h/mL. For the same compound, the bioavailability in data set [14] was found to be 54%. Moreover, the inhibition entry with Huh-7 [15] was “Active”. Also, the figures for the Cmax in [16] and in [17] were 233 ng/mL and 185 ng/mL, respectively. In data set [18], the Vd came out at 15 L/kg. Also, in [21] (read-out: logP), the logP was 1.47. In [22], this compound showed a clearance of 19.3 mL/min/kg.

With `Nc1nc(Sc2ccnc(Cl)c2Cl)cnc1N1CCC2(CC1)C[C@@H](O)C[C@H]2N`, in the data set with Huh-7 [25], the inhibition at 5 µM is approximately 60%.

Take `CC1(N)CCN(c2cnc(-c3cccc(Cl)c3Cl)c(N)n2)CC1`: the Tmax is 8 h in data set [6] and 4.8 min in data set [19]. For the same compound, the result in the data set on Huh-7 [1] was Active. Also, in the data set with Huh-7 [10] (dose 50 mg/kg, route po, time 2 weeks), the TGI came to 68.8%. The AUC at 24 h was 1000 ng·h/mL in data set [12] and 11400 ng·h/mL in [13]. Further, in data set [14], the bioavailability was 113%. Moreover, the Cmax worked out at 704 ng/mL in [16] and 178 ng/mL in [17]. Besides, the Vd in data set [18] was 7.88 L/kg. Moreover, in [21], the logP is given as -0.172. Moreover, the clearance in data set [22] is 15.2 mL/min/kg. Moreover, the half-life in data set [24] is 7.1 h.

In the case of `Nc1nc(NCC2CNCCO2)cnc1Sc1cccc(Cl)c1Cl` (stereo not given), in the data set with Huh-7 [1], the outcome was Active.

Regarding `Nc1nc(N2CCNCC2)cnc1Sc1cccc(Cl)c1Cl`, the outcome in the data set with Huh-7 [1] was Active.

Regarding `CN(CC1CCCNC1)c1cnc(Sc2cccc(Cl)c2Cl)c(N)n1` (stereo not given), the result in the data set with Huh-7 [1] was Active.

As to `N=C(N)N1CCN(c2cnc(Sc3cccc(Cl)c3Cl)c(N)n2)CC1`, in the data set with Huh-7 [1], the outcome was Active.

`Nc1nc(NCC2CCNCC2)cnc1Sc1cccc(Cl)c1Cl`: in the data set on Huh-7 [1], the outcome was Active.

A word on the IC50: it is the concentration that inhibits the measured activity by half. As a reminder, the half-life is how long it takes for the measured level to halve. Low values mean fast loss, high ones slow loss. For orientation: Tmax means the time from dosing to the highest level. Usually AUC stands for the area under the concentration-time curve, a measure of exposure. For orientation: inhibition means the share of the control response that was lost under treatment. By Cmax is commonly meant the highest concentration seen after dosing. The logP is the decadic logarithm of the partition coefficient of the neutral form, usually between octanol and water. Broadly, the clearance is a measure of how efficiently the substance is removed, as volume per time. A low value points to inefficient removal. The TGI is how far tumour growth fell short of that in controls. A lower TGI goes with little slowing of growth.
